From patent publication US20170150719A1, “FUNGICIDAL PYRAZOLES AND THEIR MIXTURES” (E I DU PONT DE NEMOURS AND COMPANY, priority 2010, published 2017)
Marks after values point to notes of the source that are not given here.

How the values were obtained:
Septoria tritici = assay: Test F: wheat leaf blotch, preventive spray on wheat seedlings, visual disease rating; assay type: in vivo; parameters: Test F rating (disease control), value marked *: concentration or dose not given beside the values
Excerpt: (§1) A hyphen (-) indicates no test results.

[1] = test system: Puccinia recondita f. sp. tritici; assay: Test G: wheat leaf rust, spray after inoculation (curative) on wheat seedlings, visual disease rating; assay type: in vivo; conditions: sprayed after inoculation, 100 = 100% disease control, 0 = no disease control
Excerpt: as §1

[2] = test system: Puccinia recondita f. sp. tritici; assay: Test H: wheat leaf rust, preventive spray on wheat seedlings, visual disease rating; conditions: 100 = 100% disease control, 0 = no disease control; for Test H rating (disease control): wheat leaf rust, sprayed the day before inoculation
Botrytis cinerea = assay: Test A: tomato Botrytis, preventive spray on tomato seedlings, visual disease rating; conditions: 100 = 100% disease control, 0 = no disease control relative to the controls; for Test A rating (disease control): tomato Botrytis
Alternaria solani = assay: Test B: tomato early blight, preventive spray on tomato seedlings, visual disease rating; conditions: for Test B rating (disease control): tomato early blight, 100 = 100% disease control, 0 = no disease control relative to the controls
Method: General protocol for preparing test suspensions for Tests A-I: the test compounds were first dissolved in acetone in an amount equal to 3% of the final volume and then suspended at the desired concentration (in ppm) in acetone and purified water (50/50 mix by volume) containing 250 ppm of the surfactant Trem® 014 (polyhydric alcohol esters). The resulting test suspensions were then used in Tests A-I. Each test was conducted in triplicate, and the results were averaged. Spraying a 200 ppm test suspension to the point of run-off on the test plants was the equivalent of a rate of about 800 g/ha. Unless otherwise indicated, the rating values indicate a 200 ppm test suspension was used. (An asterisk “*” next to the rating value indicates a 40 ppm test suspension was used.)
The test suspension was sprayed to the point of run-off on tomato seedlings. The following day the seedlings were inoculated with a spore suspension of Alternaria solani (the causal agent of tomato early blight) and incubated in a saturated atmosphere at 27° C. for 48 h, and then moved to a growth chamber at 20° C. for 5 days, after which time visual disease ratings were made.

[3] = test system: Blumeria graminis f. sp. tritici; assay: Test I: wheat powdery mildew, preventive spray on wheat seedlings, visual disease rating; conditions: 100 = 100% disease control, 0 = no disease control relative to the controls; for Test I rating (disease control): wheat powdery mildew
Septoria nodorum = assay: Test E: Septoria glume blotch, preventive spray on wheat seedlings, visual disease rating; conditions: 100 = 100% disease control, 0 = no disease control relative to the controls; for Test E rating (disease control): Septoria glume blotch
[4] = 100 = 100% disease control, 0 = no disease control relative to the controls

Row | Structure (SMILES) | Test F rating (disease control), value marked * (Septoria tritici; rating marked with asterisk (*), other test condition, not explained in the text shown) | Test G rating (disease control) [1] [%] | Test H rating (disease control) [2] [%] | Test A rating (disease control) (Botrytis cinerea) [%] | Test B rating (disease control) (Alternaria solani) [%] | Test I rating (disease control) [3] [%] | Test E rating (disease control) (Septoria nodorum) [%] | pest or weed control at 200 µg/mL (Septoria tritici; Zymoseptoria tritici, 100 = 100% disease control, 0 = no disease control relative to the controls) [%] | pest or weed control at 200 µg/mL [1] [%] | pest or weed control at 200 µg/mL ([2]; read-out: Test H rating (disease control), wheat leaf rust, sprayed the day before inoculation) [%] | pest or weed control at 200 µg/mL (Botrytis cinerea; Botrytis cinerea, in Solanum lycopersicum, read-out: Test A rating (disease control), tomato Botrytis) [%] | pest or weed control at 200 µg/mL (Alternaria solani; Alternaria solani, in Solanum lycopersicum, read-out: Test B rating (disease control)) [%] | pest or weed control at 200 µg/mL ([3]; Blumeria graminis, in Triticum aestivum, read-out: Test I rating (disease control), wheat powdery mildew) [%] | pest or weed control at 200 µg/mL (Septoria nodorum; Parastagonospora nodorum, in Triticum aestivum, read-out: Test E rating (disease control), Septoria glume blotch) [%] | Test F rating (disease control) (Septoria tritici; [4]) [%]
1 | Cc1nn(C)c(Nc2ccc(Cl)cc2Cl)c1-c1ccc(F)cc1Cl [compound 88] | 100* % | 41 | 100 | 100 | 95 | 100 | 51 |  |  |  |  |  |  |  | 
2 | Cc1nn(C)c(Nc2ccc(F)cc2F)c1-c1ccc(Cl)cc1Cl [Compound 17, 4-(2,4-dichlorophenyl)-N-(2,4-difluorophenyl)-1,3-dimethyl-1H-pyrazol-5-amine] |  |  |  |  |  |  |  | 99 | 91 | 99 | 100 | 73 | 100 | 60 | 
3 | COc1cc(F)c(-c2c(C)nn(C)c2Oc2ccc(Cl)cc2Cl)c(F)c1 [compound 10] |  | 92 | 99 | 99 | 0 | 99 | 0 |  |  |  |  |  |  |  | 94
4 | Cc1nn(C)c(Nc2ccc(F)cc2F)c1-c1c(F)cc(C#N)cc1F [compound 30] |  | 82 | 99 | 100 | 99 | 100 | 90 |  |  |  |  |  |  |  | 100
5 | COc1cc(F)c(Nc2c(-c3ccc(Cl)cc3Cl)c(C)nn2C)c(F)c1 [compound 16] |  | 98 | 99 | 99 | 98 | 99 | 84 |  |  |  |  |  |  |  | 98
6 | Cc1nn(C)c(Nc2c(F)cc(F)cc2Cl)c1-c1ccc(Cl)cc1Cl [compound 156] |  | 31 | 99 | 100 | 99 | 99 | 73 |  |  |  |  |  |  |  | 100
7 | Cc1nn(C)c(Oc2ccc(C#N)cc2F)c1-c1ccc(Cl)cc1F [compound 119] |  | 0 | 91 | 99 | 94 | 99 | 94 |  |  |  |  |  |  |  | 100
8 | COc1ccc(-c2c(C)nn(C)c2Oc2ccc(C#N)cc2F)c(Cl)c1 [compound 92] |  | 0 | 99 | 100 | 99 | 96 | 99 |  |  |  |  |  |  |  | 100
9 | COc1ccc(Nc2c(-c3ccc(F)cc3F)c(C)nn2C)c(F)c1 [compound 63] |  | 0 | 80 | 99 | 99 | 99 | 0 |  |  |  |  |  |  |  | 99
10 | Cc1nn(C)c(Nc2ccc(F)cc2F)c1-c1ccccc1Cl [compound 97] |  | 0 | 96 | 99 | 99 | 100 | 0 |  |  |  |  |  |  |  | 100
11 | Cc1nn(C)c(Nc2ccc(Br)cc2Cl)c1-c1ccc(F)cc1F [compound 167] |  | 6 | 92 | 100 | 0 | 98 | 0 |  |  |  |  |  |  |  | 100
